Assay results: patent US9346820B2, “HIV-1 protease inhibitors having gem-di-fluoro bicyclic P2-ligands” (priority 2013, dated 2016)
pEC50: −log10 of the molar value.

Experiments:
HIV-1DRV^RP20 = experiment: Antiviral activity against DRV-resistant variant, passage 20; format: cell-based; details: Human immunodeficiency virus 1, read-out: EC50 against HIV-1DRV^RP20
MT-2 cells = experiment: Cytotoxicity (CC50), MTT assay; format: cell-based; details: human, 7 days
Experimental: The susceptibility of HIV-1LAI to various drugs was determined as previously described with minor modifications. Briefly, MT-2 cells (10^4/ml) were exposed to 100 50% tissue culture infectious doses (TCID50) of HIV-1LAI in the presence or absence of various concentrations of drugs in 96-well microculture plates and were incubated at 37° C. for 7 days. After 100 μl of the medium was removed from each well, 3-(4,5-dimetylthiazol-2-yl)-2,5-diphenyltetrazolium bromide (MTT) solution (10 μl, 7.5 mg/ml in phosphate-buffered saline) was added to each well in the plate, followed by incubation at 37° C. for 2 h. […] All assays were performed in duplicate or triplicate. […] In determining the drug susceptibility of certain laboratory HIV-1 strains, MT-4 cells were employed as target cells as previously described with minor modifications. In brief, MT-4 cells (10^5/ml) were exposed to 100 TCID50 of drug-resistant HIV-1 strains in the presence or absence of various concentrations of drugs and were incubated at 37° C. On day 7 of culture, the supernatants were harvested and the amounts of p24 Gag protein were determined by using a fully automated chemiluminescent enzyme immunoassay system (Lumipulse F: Fujirebio Inc., Tokyo). […] All assays were performed in duplicate or triplicate. PHA-PBMs were derived from a single donor in each independent experiment. Thus, for obtaining the data, three different donors were recruited.

| SMILES | pEC50 (HIV-1DRV^RP20) | CC50 (MT-2 cells) |
| --- | --- | --- |
| CC(C)CN(C[C@@H](O)[C@H](Cc1ccccc1)NC(=O)O[C@H]1CO[C@H]2OCC[C@H]21)S(=O)(=O)c1ccc(N)cc1 [DRV, darunavir] | 6.76 | – |
| CC(C)CN(C[C@@H](O)[C@H](Cc1ccccc1)NC(=O)O[C@H]1CO[C@H]2OCC(F)(F)[C@H]21)S(=O)(=O)c1ccc(N)cc1 [GRL-05010] | – | 37 µM |
